Here are results for two compounds from patent US20230285497A1, “ATOPIC […] WITH KAPPA OPIOID RECEPTOR AGONIST AS ADJUNCT TO TOPICAL CORTICOSTEROID” (Cara Therapeutics, Inc., priority 2022, published 2023).

Structures are written as SMILES.

The test system of data set [1] is subjects with atopic dermatitis. The data set is described as follows: Phase 2 study, tolerability and Treatment Emergent Adverse Events. It counts as in vivo, human. The procedure: Oral Difelikefalin 0.25 mg, 0.5 mg, 1.0 mg, or placebo was administered twice daily (BID) in subjects with atopic dermatitis (baseline validated Investigator's Global Assessment scale for AD: vIGA-ADTM≥2 and body surface area [BSA]≤30%) and moderate-to-severe AD-related pruritus (mean baseline Itch Numerical Rating Scale [I-NRS, 0-10 scale] score ≥5.0). The primary and key secondary endpoints were the change from baseline in the weekly mean of the daily I-NRS score at Week 12, and the proportion of subjects achieving at least a 4-point improvement from baseline in I-NRS score at Week 12, respectively.
There were no deaths in the study. Abdominal pain was the most common TEAE leading to study drug discontinuation in the 1.0 mg dose group (6.5%), compared to placebo (1.6%), 0.25 mg (0%) and 0.5 mg (0%) dose groups.

A short description of a further data set: Solubility in water. It counts as physicochemical. To be noted: acetate salt.

With `CC(C)C[C@@H](NC(=O)[C@@H](Cc1ccccc1)NC(=O)[C@H](N)Cc1ccccc1)C(=O)N[C@H](CCCCN)C(=O)N1CCC(N)(C(=O)O)CC1` [Difelikefalin], the “abdominal pain TEAE leading to study drug discontinuation” value is on record as 0% in data set [1] (0.25 mg dose group), 0% in data set [1] (0.5 mg dose group) and 6.5% in data set [1] (1.0 mg dose group). Moreover, the “deaths in the study” value in data set [1] (in vivo) is “no deaths”. In addition, the “severity of the majority of reported TEAEs” value in data set [1] (in vivo) is recorded as “mild or moderate”. In data set [1] (oral, twice daily, 12-week Treatment Period), the overall tolerability result is “generally well-tolerated”. In data set [1] (≥5% in any dose group), the “most common Treatment Emergent Adverse Events (TEAEs)” value was “abdominal pain, nausea, dry mouth, headache, dizziness and hypertension”.
Regarding `CC(=O)O.CC(C)C[C@@H](NC(=O)[C@@H](Cc1ccccc1)NC(=O)[C@H](N)Cc1ccccc1)C(=O)N[C@H](CCCCN)C(=O)N1CCC(N)(C(=O)O)CC1` [Difelikefalin acetate, 4-amino-1-(D-phenylalanyl-D-phenylalanyl-D-leucyl-D-lysyl)piperidine-4-carboxylic acid, acetate salt], the solubility in water result in the data set “Solubility in water” was “soluble in water”.
